Patent US9303033B2, “Pyrazolopyrimidines and related heterocycles as CK2 inhibitors” (SENHWA BIOSCIENCES, INC., priority 2009, dated 2016)
Like-named read-outs stand apart in the source and are kept apart here.

How the values were obtained:
recombinant human PIM2 = recombinant human PIM2 (Homo sapiens (Human), UniProt Q9P1W9); test: PIM-2 assay (33P-ATP filter binding); format: biochemical; conditions: for PIM2: % inh […]: at […] compound
CK2 ααββ = CK2 ααββ (Homo sapiens (Human), UniProt P68400); test: CK2 assay (cell-free, 33P-ATP, phosphocellulose filter plate); format: biochemical
Sequence of CK2 ααββ (P68400 whole entry): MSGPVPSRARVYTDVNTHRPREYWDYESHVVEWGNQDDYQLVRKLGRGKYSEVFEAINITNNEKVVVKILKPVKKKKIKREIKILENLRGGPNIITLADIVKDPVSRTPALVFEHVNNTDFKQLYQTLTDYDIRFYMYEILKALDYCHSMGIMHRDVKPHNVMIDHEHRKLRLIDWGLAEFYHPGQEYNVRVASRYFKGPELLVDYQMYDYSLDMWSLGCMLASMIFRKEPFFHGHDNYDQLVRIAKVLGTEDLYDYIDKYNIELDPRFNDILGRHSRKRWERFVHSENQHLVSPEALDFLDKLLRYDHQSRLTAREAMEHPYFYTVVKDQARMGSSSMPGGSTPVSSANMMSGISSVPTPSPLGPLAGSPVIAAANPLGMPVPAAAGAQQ
Sequence of CK2 ααββ (P67870 whole entry partner): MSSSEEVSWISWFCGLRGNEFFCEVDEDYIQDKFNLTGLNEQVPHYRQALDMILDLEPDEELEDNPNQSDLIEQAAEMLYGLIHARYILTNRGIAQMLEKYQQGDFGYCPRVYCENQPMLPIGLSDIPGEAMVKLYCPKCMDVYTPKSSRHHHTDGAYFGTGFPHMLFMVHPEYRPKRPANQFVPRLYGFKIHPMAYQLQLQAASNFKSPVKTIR

MDAMB453 = test: Cell proliferation assay with Alamar Blue (AB), MDAMB453; format: cell-based
Procedure: (§1) A representative cell-proliferation assay protocol using Alamar Blue dye (stored at 4° C., use 20 ul per well) is described hereafter.
(§2) a. Split and trypsinize cells.
(§3) b. Count cells using hemocytometer.
(§4) c. Plate 4,000-5,000 cells per well in 100 μl of medium and seed into a 96-well plate according to the following plate layout. Add cell culture medium only to wells B10 to B12.
(§5) d. Add 100 μl of 2× drug dilution to each well in a concentration shown in the plate layout above. […] Total volume is 200 μl/well.
(§6) e. Incubate four (4) days at 37° C., 5% CO2 in a humidified incubator.
(§7) f. Add […] Alamar Blue reagent to each well.
(§8) g. Incubate for four (4) hours at 37° C., 5% CO2 in a humidified incubator.
(§9) h. Record fluorescence at an excitation wavelength of 544 nm and emission wavelength of 590 nm using a microplate reader.
(§10) In the assays, cells are cultured with a test compound for approximately four days, the dye is then added to the cells and fluorescence of […] dye is detected after approximately four hours. Different types of cells can be utilized in the assays (e.g., HCT-116 human colorectal carcinoma cells, PC-3 human prostatic cancer cells, MDA-MB231 human breast cancer cells, K-562 human chronic myelogenous leukemia (CML) cells, MiaPaca human pancreatic carcinoma cells, MV-4 human acute myeloid leukemia cells, and BxPC3 human pancreatic adenocarcinoma cells).

[1] = system: BxPC3 human pancreatic adenocarcinoma cells; test: Cell proliferation assay with Alamar Blue (AB), BxPC3; format: cell-based
Procedure: as §1, §2, §3, §4, §5, §6, §7, §8, §9, §10

[2] = Homo sapiens, MDA-MB-453, MDAMB453 cells, read-out: AB: MDAMB453
[3] = Homo sapiens, BXPC-3, read-out: AB: BxPC3
[4] = PIM2: IC50 (5 μM ATP), 5 μM ATP
[5] = read-out: PIM2: IC50 (5 μM ATP), 5 μM ATP
[6] = MDAMB453 cells, read-out: AB: MDAMB453
[7] = MDAMB453 cells, read-out: AB: MDAMB453 IC50

Sequence of recombinant human PIM2 (Q9P1W9 whole entry): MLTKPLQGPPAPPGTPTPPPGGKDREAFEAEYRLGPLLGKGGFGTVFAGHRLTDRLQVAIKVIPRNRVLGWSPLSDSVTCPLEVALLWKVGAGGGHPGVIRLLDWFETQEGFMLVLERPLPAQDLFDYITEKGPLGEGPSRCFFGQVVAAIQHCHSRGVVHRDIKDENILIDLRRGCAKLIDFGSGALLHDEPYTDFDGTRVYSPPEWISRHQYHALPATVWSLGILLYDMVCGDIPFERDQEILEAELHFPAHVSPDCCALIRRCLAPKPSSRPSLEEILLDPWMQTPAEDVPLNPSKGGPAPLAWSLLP

Row | IC50 (CK2 ααββ) | IC50 (MDAMB453; [2]) | IC50 [1, 3] | IC50 (recombinant human PIM2; [4]) | Structure (SMILES) | further results
1 | < 1000 nM | > 30000 nM | 22700 nM | – | O=C1NC(=S)S/C1=C\c1cnn2c(NC3CC3)cc(-c3ccnc(F)c3)nc12 | IC50 (recombinant human PIM2; 5 um ATP, read-out: PIM2: IC50 (5 um ATP)): 1590 nM
2 | < 1000 nM | 717 nM | 1920 nM | 475 nM | O=C1NC(=O)/C(=C/c2cnn3c(NCCO)cc(Nc4cccc(Cl)c4)nc23)N1 [Example D6] | –
3 | < 10 nM | 4750 nM | > 30000 nM | 867 nM | O=C1NC(=O)/C(=C/c2cnn3c(NC4CC4)cc(-c4cccc(F)c4)nc23)N1 [Example J4] | –
4 | < 10 nM | 1300 nM | 6590 nM | > 2500 nM | O=C1NC(=O)/C(=C/c2cnn3c(NC4CC4)cc(-c4cccc(OCC5CC5)c4)nc23)N1 [Example F4] | –
5 | < 10 nM | 1590 nM | 14000 nM | 1230 nM | O=C1NC(=O)/C(=C/c2cnn3c(Nc4cccc(C(=O)N5CCNCC5)c4)cc(Nc4cccc(Cl)c4)nc23)N1 [Example F7] | –
6 | < 100 nM | 7420 nM | 9210 nM | > 2500 nM | Cc1ccc(Nc2cc(NCC3CC3)n3ncc(/C=C4\NC(=O)NC4=O)c3n2)nc1 [Example W1] | –
7 | < 10 nM | – | – | – | CC1CN(Cc2cc(-c3cc(NC4CC4)n4ncc(C=C5NC(=O)NC5=O)c4n3)cs2)CC(C)O1 (centres unmarked) [Compound A14] | IC50 (recombinant human PIM2; [5]): 1570 nM; IC50 (MDAMB453; [6]): 1610 nM; IC50 ([1]; read-out: AB: BxPC3): 1760 nM
8 | < 10 nM | 10000 nM | > 30000 nM | > 2500 nM | CC1CN(C(C)c2cccc(Nc3cc(NC4CC4)n4ncc(/C=C5\NC(=O)NC5=O)c4n3)c2)CC(C)O1 (centres unmarked) [Example G1] | –
9 | < 10 nM | 12800 nM | > 30000 nM | 766 nM | C[C@H](Nc1cc(NC2CC2)n2ncc(/C=C3\NC(=O)NC3=O)c2n1)C1CC1 [Example U2] | –
10 | < 100 nM | – | – | – | CN1C(=O)NC(=Cc2cnn3c(NC4CC4)cc(Nc4ccccc4F)nc23)C1=O [Example F42] | PIM2: % inh […] (recombinant human PIM2): −17.549%; IC50 (MDAMB453; [7]): 29100 nM; IC50 ([1]; read-out: AB: BxPC3 IC50): > 30000 nM
11 | < 10 nM | 14900 nM | 10600 nM | 48.7 nM | NCc1cccc(-c2cc(NC3CC3)n3ncc(/C=C4\NC(=O)NC4=O)c3n2)c1 [Example R4] | –
12 | < 10 nM | 991 nM | 3210 nM | > 2500 nM | O=C1NC(=O)/C(=C/c2cnn3c(NC4CC4)cc(Nc4ccc(Cl)c(C(F)(F)F)c4)nc23)N1 [Example H1] | –
13 | < 10 nM | 3040 nM | 9180 nM | 845 nM | COC(=O)Nc1cc(NC2CC2)n2ncc(/C=C3\NC(=O)NC3=O)c2n1 [Example N2] | –
14 | < 10 nM | 7710 nM | 5660 nM | > 2500 nM | COc1ccc(Nc2cc(NC3CC3)n3ncc(/C=C4\NC(=O)NC4=O)c3n2)cc1Cl [Example K1] | –
15 | < 10 nM | – | – | – | CN(C)CCCOc1ccc(Nc2cc(NC3CC3)n3ncc(C=C4NC(=O)NC4=O)c3n2)cc1Cl [Example T42] | PIM2: % inh […] (recombinant human PIM2): 44.33%; IC50 (MDAMB453; [7]): 2090 nM; IC50 ([1]; read-out: AB: BxPC3 IC50): 5330 nM
16 | < 100 nM | 14200 nM | > 30000 nM | > 2500 nM | O=C1NC(=O)/C(=C/c2cnn3c(Nc4cccc(C(=O)O)c4)cc(Nc4cccc(Cl)c4)nc23)N1 [Example D7] | –
17 | < 10 nM | – | – | – | O=C1NC(=O)C(=Cc2cnn3c(NC4CC4)cc(Nc4ccc(OCCN5CCOCC5)c(Cl)c4)nc23)N1 [Example U42] | PIM2: % inh […] (recombinant human PIM2): 48.912%; IC50 (MDAMB453; [7]): 1090 nM; IC50 ([1]; read-out: AB: BxPC3 IC50): 2460 nM
18 | < 10 nM | 1710 nM | 2050 nM | > 2500 nM | COC(=O)c1cccc(-c2cc(NC3CC3)n3ncc(/C=C4\NC(=O)NC4=O)c3n2)c1 [Example W3] | –
19 | < 100 nM | 1120 nM | 4260 nM | 2410 nM | COC(=O)CN1CCC(Nc2cc(Nc3cccc(Cl)c3)nc3c(/C=C4\NC(=O)NC4=O)cnn23)CC1 [Example O5] | –
20 | < 10 nM | 15700 nM | 29000 nM | > 2500 nM | O=C1NC(=O)/C(=C/c2cnn3c(NC4CC4)cc(-c4cccc(NS(=O)(=O)C5CC5)c4)nc23)N1 [Example Z4] | –
21 | < 10 nM | 435 nM | 1840 nM | > 2500 nM | CN(C)CCNC(=O)c1cc(-c2cc(NC3CC3)n3ncc(/C=C4\NC(=O)NC4=O)c3n2)ccc1F [Example G5] | –

Row | IC50 (CK2 ααββ) | IC50 (MDAMB453; [2]) | IC50 [1, 3] | IC50 (recombinant human PIM2; [4]) | Structure (SMILES) | further results
22 | < 10 nM | 1150 nM | 1190 nM | > 2500 nM | Cc1cc(COc2cccc(-c3cc(NC4CC4)n4ncc(/C=C5\NC(=O)NC5=O)c4n3)c2)no1 [Example G4] | –
23 | < 1000 nM | 708 nM | 2560 nM | 704 nM | O=C1NC(=O)/C(=C/c2cnn3c(NCc4cccnc4)cc(Nc4cccc(Cl)c4)nc23)N1 [Example I6] | –
24 | < 100 nM | 2460 nM | 16600 nM | 1180 nM | Nc1cc(Nc2cccc(Cl)c2)nc2c(/C=C3\NC(=O)NC3=O)cnn12 [Example A1, 5-((7-amino-5-(3-chlorophenylamino)pyrazolo[1,5-a]pyrimidin-3-yl)methylene)imidazolidine-2,4-dione] | –
25 | < 10 nM | 7120 nM | 3920 nM | 2480 nM | O=C1NC(=O)/C(=C/c2cnn3c(NC4CC4)cc(Nc4cccc(C(F)(F)F)c4)nc23)N1 [Example J1] | –
26 | < 10 nM | 3510 nM | 3880 nM | 1300 nM | O=C1NC(=O)/C(=C/c2cnn3c(NC4CC4)cc(NN4CCOCC4)nc23)N1 [Example S2] | –
27 | < 10 nM | 4510 nM | 10400 nM | > 2500 nM | O=C1NC(=O)/C(=C/c2cnn3c(NC4CC4)cc(NC4CCCC4)nc23)N1 [Example O2] | –
28 | < 10 nM | – | – | – | Cc1c(Nc2ccc(C#N)cc2Cl)nc2c(C=C3NC(=O)NC3=O)cnn2c1NC1CC1 [Example D46] | PIM2: % inh […] (recombinant human PIM2): 53.934%; IC50 (MDAMB453; [7]): 6240 nM; IC50 ([1]; read-out: AB: BxPC3 IC50): 29900 nM
29 | < 100 nM | 12400 nM | > 30000 nM | > 2500 nM | CNc1cc(-c2cccc(CNC(C)=O)c2)nc2c(/C=C3\NC(=O)NC3=O)cnn12 [Example V4] | –
30 | < 10 nM | – | – | – | CN(C)C1CCN(Cc2cc(-c3cc(NC4CC4)n4ncc(C=C5NC(=O)NC5=O)c4n3)cs2)C1 (centres unmarked) [Compound Z13] | IC50 (recombinant human PIM2; [5]): > 2500 nM; IC50 (MDAMB453; [6]): 2500 nM; IC50 ([1]; read-out: AB: BxPC3): 10200 nM
31 | < 10 nM | 364 nM | 3010 nM | 2020 nM | CC(C)(C)OC(=O)N1CCN(C(=O)c2cccc(Nc3cc(Nc4cccc(Cl)c4)nc4c(/C=C5\NC(=O)NC5=O)cnn34)c2)CC1 [Example E7] | –
32 | < 10 nM | 948 nM | 1810 nM | > 2500 nM | O=C1NC(=O)/C(=C/c2cnn3c(NC4CC4)cc(-c4ccc(F)c(C(=O)N5CCOCC5)c4)nc23)N1 [Example F5] | –
33 | < 1000 nM | 936 nM | 3160 nM | 317 nM | CC(O)CNc1cc(Nc2cccc(Cl)c2)nc2c(/C=C3\NC(=O)NC3=O)cnn12 (centres unmarked) [Example K6] | –
34 | < 100 nM | 874 nM | 10000 nM | > 2500 nM | CC(C)(C)C(=O)N1CCC(Nc2cc(Nc3cccc(Cl)c3)nc3c(/C=C4\NC(=O)NC4=O)cnn23)CC1 [Example M5] | –
35 | < 10 nM | 1340 nM | 4070 nM | 2200 nM | O=C1NC(=O)/C(=C/c2cnn3c(NC4CC4)cc(Nc4cccc(F)c4)nc23)N1 [Example D1] | –
36 | < 100 nM | – | – | – | CN1C(=O)NC(=Cc2cnn3c(NC4CC4)cc(Nc4ccc(C#N)cc4)nc23)C1=O [Example D42] | PIM2: % inh […] (recombinant human PIM2): −39.275%; IC50 (MDAMB453; [7]): 693 nM; IC50 ([1]; read-out: AB: BxPC3 IC50): 2800 nM
37 | < 10 nM | – | – | – | O=C1NC(=O)C(=Cc2cnn3c(NC4CC4)cc(-c4csc(CN5CCCC5)c4)nc23)N1 [Compound Y13] | IC50 (recombinant human PIM2; [5]): > 2500 nM; IC50 (MDAMB453; [6]): 1390 nM; IC50 ([1]; read-out: AB: BxPC3): 929 nM
38 | < 10 nM | – | – | – | O=C1NC(=O)C(=Cc2cnn3c(NC4CC4)cc(Oc4cccc(Cl)c4)nc23)N1 [Compound U38] | IC50 (recombinant human PIM2; Tables 41B, 42B, read-out: PIM2: IC50): > 2500 nM; IC50 (MDAMB453; [7]): 10700 nM; IC50 ([1]; read-out: AB: BxPC3 IC50): 20900 nM
39 | < 10 nM | 1260 nM | 8130 nM | > 2500 nM | O=C1NC(=O)/C(=C/c2cnn3c(NC4CC4)cc(-c4cccnc4)nc23)N1 [Example U4] | –
40 | < 10 nM | 12300 nM | > 30000 nM | 2080 nM | CC(=O)c1cccc(-c2cc(NC3CC3)n3ncc(/C=C4\NC(=O)NC4=O)c3n2)c1 [Example W4] | –
41 | < 10 nM | 2040 nM | 5760 nM | > 2500 nM | COc1cccc(Nc2cc(NC3CC3)n3ncc(/C=C4\NC(=O)NC4=O)c3n2)c1 [Example F1] | –
